From PubChem BioAssay (NCI) come the findings set out here.

Test systems include CCRF-CEM leukemia; SK-MEL-5 melanoma; K-562 leukemia; HOP-62 NSCLC; CAKI-1 renal; SK-MEL-28 melanoma; MOLT-4 leukemia; KM12 colon; A549 NSCLC; SNB-19 CNS.
What all share (assay): NCI anticancer screen, dose series, 48 h

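Results reflect a 48-hour exposure of cells in 96-well plates to compound at five concentrations. The concentration for 50% growth inhibition is given as GI50. Definition used: TGI = concentration required for complete inhibition of growth.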

Take `C[C@@H]1CC[C@H]2C(CN3CCN(CC4=C(C(F)(F)F)O[C@@H]5O[C@@]6(C)CC[C@H]7[C@H](C)CC[C@@H]4[C@@]57OO6)CC3)=C(C(F)(F)F)O[C@@H]3O[C@@]4(C)CC[C@@H]1[C@]32OO4`: the GI50 in the assay on CCRF-CEM leukemia was 0.605 µM; in the assay with SK-MEL-5 melanoma, 2.96 µM; with K-562 leukemia it was 1.09 µM; with CAKI-1 renal, 3.16 µM; in the assay on SK-MEL-28 melanoma it was 9.96 µM; in the assay on MOLT-4 leukemia, 5.35 µM. Further, the GI50 in the assay on KM12 colon is 0.944 µM; in the assay on A549 NSCLC, 3.31 µM; in the assay with SNB-19 CNS it was 7.75 µM. For the same compound, the TGI in the assay with CCRF-CEM leukemia is over 100 µM; with SK-MEL-5 melanoma, over 100 µM; in the assay on K-562 leukemia it was over 100 µM; in the assay with HOP-62 NSCLC, over 46.9 µM; in the assay on CAKI-1 renal, over 33.5 µM; with SK-MEL-28 melanoma it was over 100 µM. In addition, the TGI in the assay on MOLT-4 leukemia is over 100 µM; with KM12 colon, over 26.6 µM; in the assay on A549 NSCLC, over 100 µM; in the assay with SNB-19 CNS, over 100 µM.

With `Cc1cc(I)cc(CN(C)CCCCN2CCCC2)c1O`, the GI50 is 31.3 µM with CCRF-CEM leukemia; 12.7 µM in the assay on SK-MEL-5 melanoma; 11.3 µM in the assay on K-562 leukemia; 16.4 µM with HOP-62 NSCLC; 17.5 µM in the assay with CAKI-1 renal; 13.4 µM with SK-MEL-28 melanoma. For the same compound, the GI50 was 15.5 µM in the assay with MOLT-4 leukemia, 19.8 µM with KM12 colon, 30.7 µM in the assay with A549 NSCLC and 27.8 µM in the assay with SNB-19 CNS. The TGI in the assay with CCRF-CEM leukemia was over 100 µM; with SK-MEL-5 melanoma, 25.2 µM; in the assay with K-562 leukemia, 24.2 µM; in the assay on HOP-62 NSCLC, 33.9 µM; in the assay on CAKI-1 renal, 38.9 µM; with SK-MEL-28 melanoma it was 27.8 µM. The TGI in the assay with MOLT-4 leukemia was 33.4 µM; with KM12 colon, 53.9 µM; with A549 NSCLC it was over 100 µM; in the assay with SNB-19 CNS, 96.1 µM.

As for `O=C1CCC(c2ccccc2)(c2ccccc2)CC1`, the TGI in the assay on CCRF-CEM leukemia was 52 µM; in the assay on SK-MEL-5 melanoma it was over 100 µM; in the assay with K-562 leukemia, over 100 µM; in the assay with HOP-62 NSCLC, over 100 µM; in the assay on CAKI-1 renal, over 100 µM; with SK-MEL-28 melanoma, over 100 µM. Besides, the TGI with MOLT-4 leukemia, in the assay on KM12 colon, with A549 NSCLC and in the assay on SNB-19 CNS was over 100 µM throughout.

As for `C/C(=N\N=C(N)N)c1sc(-c2nc(C)c(/C(C)=N/N=C(N)N)s2)nc1C`, the TGI in the assay on CCRF-CEM leukemia, in the assay with SK-MEL-5 melanoma, with K-562 leukemia, in the assay with HOP-62 NSCLC, in the assay with CAKI-1 renal and with SK-MEL-28 melanoma was over 100 µM in each case. The TGI in the assay with MOLT-4 leukemia, in the assay on KM12 colon, in the assay with A549 NSCLC and in the assay with SNB-19 CNS was over 100 µM throughout.

For `Cc1cc(Br)cc(C)c1NC(=O)C(=O)C(C(=O)c1ccc(Cl)c(Cl)c1)C1OC(=O)c2ccccc21` (configuration not stated), the TGI in the assay with CCRF-CEM leukemia, in the assay with K-562 leukemia, with HOP-62 NSCLC, in the assay with CAKI-1 renal, with MOLT-4 leukemia and with KM12 colon was over 100 µM in each case. Also, the TGI with A549 NSCLC and with SNB-19 CNS was over 100 µM throughout.

For the compound `C(=C1/CCCCC([n+]2ccccc2)=N1)/c1ccccc1`, the TGI in the assay on CCRF-CEM leukemia, with K-562 leukemia, with HOP-62 NSCLC, with CAKI-1 renal, with SK-MEL-28 melanoma and in the assay on MOLT-4 leukemia was over 100 µM each time. For the same compound, in the assay on A549 NSCLC, the TGI is over 100 µM.

On to `COc1ccc(-c2nc(N)nc(-c3cc(C)ccc3O)c2Cl)cc1`, for which the TGI in the assay with CCRF-CEM leukemia, in the assay on K-562 leukemia, in the assay with HOP-62 NSCLC, in the assay on CAKI-1 renal, in the assay with SK-MEL-28 melanoma and in the assay on MOLT-4 leukemia was over 100 µM in each case. Besides, the TGI in the assay on KM12 colon, in the assay with A549 NSCLC and in the assay with SNB-19 CNS was over 100 µM in each case.

`O=C(O)CNS(=O)(=O)c1ccc(NC(=O)c2cccc([N+](=O)[O-])c2)cc1`: the TGI in the assay on CCRF-CEM leukemia, in the assay with SK-MEL-5 melanoma, in the assay on K-562 leukemia, with CAKI-1 renal, with SK-MEL-28 melanoma and in the assay on MOLT-4 leukemia was over 100 µM in each case. Further, the TGI in the assay on KM12 colon, in the assay on A549 NSCLC and in the assay with SNB-19 CNS was over 100 µM throughout.

Consider `C/C(=N\NC(=S)Nc1ccc([N+](=O)[O-])cc1S(=O)(=O)O)c1ccccn1`, for which the TGI in the assay with CCRF-CEM leukemia, in the assay on SK-MEL-5 melanoma, in the assay on K-562 leukemia, in the assay on HOP-62 NSCLC, with CAKI-1 renal and in the assay on SK-MEL-28 melanoma was over 100 µM in each case. The TGI with MOLT-4 leukemia, in the assay on KM12 colon and in the assay with A549 NSCLC was over 100 µM throughout.

Take `NC(=NC1C2CC3CC(C2)CC1C3)Nc1ccc(I)cc1` (configuration not stated): the GI50 with CCRF-CEM leukemia is 3.43 µM; with SK-MEL-5 melanoma it was 1.57 µM; in the assay on K-562 leukemia, 3.29 µM; with HOP-62 NSCLC it was 2.46 µM; in the assay on CAKI-1 renal, 3.29 µM; in the assay with SK-MEL-28 melanoma it was 2.53 µM. Also, the GI50 in the assay with MOLT-4 leukemia is 2.22 µM; with A549 NSCLC, 3.44 µM; in the assay with SNB-19 CNS, 4.35 µM. Moreover, the TGI is over 100 µM with CCRF-CEM leukemia; 2.95 µM with SK-MEL-5 melanoma; 15.7 µM with K-562 leukemia; 8.38 µM in the assay on HOP-62 NSCLC; 13.1 µM with CAKI-1 renal; 7.58 µM in the assay with SK-MEL-28 melanoma. For the same compound, the results for the TGI in the assay on MOLT-4 leukemia, with A549 NSCLC and in the assay with SNB-19 CNS were 8.79 µM, 14.2 µM and 16.6 µM, respectively.

With `C=C1C(=O)O[C@H]2[C@H](OC(C)=O)[C@@H](C)CCC/C(C)=C/CC[C@]3(CO3)[C@H](O)C[C@@H]12`, the GI50 is 1.87 µM in the assay with CCRF-CEM leukemia; 13.4 µM in the assay with SK-MEL-5 melanoma; 1.85 µM in the assay on K-562 leukemia; 1.91 µM with CAKI-1 renal; 2.21 µM with SK-MEL-28 melanoma; 2.28 µM in the assay on MOLT-4 leukemia. Also, the GI50 is 2.33 µM in the assay with KM12 colon, 16.9 µM with A549 NSCLC and 15.2 µM in the assay with SNB-19 CNS. Besides, the TGI with CCRF-CEM leukemia amounted to 4.77 µM; with SK-MEL-5 melanoma it was 27.4 µM; in the assay with K-562 leukemia, 5.06 µM; in the assay with CAKI-1 renal, 4.51 µM; with SK-MEL-28 melanoma, 4.8 µM; with MOLT-4 leukemia it was 5.82 µM. For the same compound, the TGI in the assay with KM12 colon came out at 8.96 µM; with A549 NSCLC it was 35 µM; in the assay with SNB-19 CNS it was 28.5 µM.
